Patent US8247377B2, “Non-steroidal glucocorticoid inhibitors and their use in treating inflammation, allergy and auto-immune conditions” (Glaxo Group Limited, priority 2006, dated 2012)

Experiments:
progesterone receptor = target: T1, progesterone receptor (Homo sapiens, UniProt P06401); experiment: Assay for progesterone receptor activity (CV-1 cells, PRb-BacMam/MMTV-BacMam); type: cell-based; settings: CV-1 cells transduced with PRb-BacMam and MMTV-BacMam; read-out: pEC50 progesterone receptor activity (converted)
T1 construct: expressed in transfected cells; host or cells: CV-1 cells transduced with PRb-BacMam and MMTV-BacMam
T1 sequence (P06401 1-933): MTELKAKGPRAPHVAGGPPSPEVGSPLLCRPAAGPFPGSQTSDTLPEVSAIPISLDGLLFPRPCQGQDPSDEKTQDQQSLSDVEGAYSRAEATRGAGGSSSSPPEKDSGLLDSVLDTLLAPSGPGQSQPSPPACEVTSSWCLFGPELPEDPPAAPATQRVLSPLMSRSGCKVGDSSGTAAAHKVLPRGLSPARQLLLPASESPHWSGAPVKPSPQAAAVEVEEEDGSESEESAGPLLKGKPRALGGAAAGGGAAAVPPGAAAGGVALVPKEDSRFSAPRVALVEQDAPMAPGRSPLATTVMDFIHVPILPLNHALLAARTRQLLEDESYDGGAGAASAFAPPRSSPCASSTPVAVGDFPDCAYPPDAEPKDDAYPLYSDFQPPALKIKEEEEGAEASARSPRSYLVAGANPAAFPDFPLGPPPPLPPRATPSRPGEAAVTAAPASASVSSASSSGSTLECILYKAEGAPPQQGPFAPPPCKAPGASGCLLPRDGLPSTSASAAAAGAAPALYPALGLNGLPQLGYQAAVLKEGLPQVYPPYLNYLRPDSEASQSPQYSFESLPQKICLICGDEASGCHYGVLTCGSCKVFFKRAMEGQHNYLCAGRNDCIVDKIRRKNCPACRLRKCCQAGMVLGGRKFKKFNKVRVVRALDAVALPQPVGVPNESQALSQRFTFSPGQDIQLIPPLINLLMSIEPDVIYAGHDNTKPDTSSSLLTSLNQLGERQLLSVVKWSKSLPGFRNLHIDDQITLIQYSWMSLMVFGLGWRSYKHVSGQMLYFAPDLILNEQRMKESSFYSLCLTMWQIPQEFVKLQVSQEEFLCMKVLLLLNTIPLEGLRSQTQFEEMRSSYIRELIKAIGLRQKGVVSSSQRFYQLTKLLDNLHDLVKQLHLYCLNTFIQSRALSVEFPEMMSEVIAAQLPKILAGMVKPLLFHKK
Protocol: A T225 flask of CV-1 cells at a density of 80% confluency was washed with PBS, detached from the flask using 0.25% trypsin and counted using a Sysmex KX-21N. Cells were diluted in DMEM containing 10% Hyclone, 2 mM L-Glutamate and 1% Pen/Strep at 140 cells/μl and transduced with 10% PRb-BacMam and 10% MMTV-BacMam. […] of suspension cells were dispensed to each well of white Nunc 384-well plates, containing compounds at the required concentration. After 24 h 10 μl of Steadylite were added to each well of the plates. Plates were incubated in the dark for 10 min before reading them on a Viewlux reader. Dose response curves were constructed from which pEC50 values were estimated.

glucocorticoid receptor = target: T2, glucocorticoid receptor (Homo sapiens, UniProt P04150); experiment: Glucocorticoid receptor binding assay (fluorescence polarisation); settings: competition with Alexa 555 fluorescently-labelled dexamethasone derivative, full length glucocorticoid receptor; read-out: glucocorticoid binding pIC50 (converted)
T2 construct: a partially purified full length glucocorticoid receptor
T2 sequence (P04150 1-777): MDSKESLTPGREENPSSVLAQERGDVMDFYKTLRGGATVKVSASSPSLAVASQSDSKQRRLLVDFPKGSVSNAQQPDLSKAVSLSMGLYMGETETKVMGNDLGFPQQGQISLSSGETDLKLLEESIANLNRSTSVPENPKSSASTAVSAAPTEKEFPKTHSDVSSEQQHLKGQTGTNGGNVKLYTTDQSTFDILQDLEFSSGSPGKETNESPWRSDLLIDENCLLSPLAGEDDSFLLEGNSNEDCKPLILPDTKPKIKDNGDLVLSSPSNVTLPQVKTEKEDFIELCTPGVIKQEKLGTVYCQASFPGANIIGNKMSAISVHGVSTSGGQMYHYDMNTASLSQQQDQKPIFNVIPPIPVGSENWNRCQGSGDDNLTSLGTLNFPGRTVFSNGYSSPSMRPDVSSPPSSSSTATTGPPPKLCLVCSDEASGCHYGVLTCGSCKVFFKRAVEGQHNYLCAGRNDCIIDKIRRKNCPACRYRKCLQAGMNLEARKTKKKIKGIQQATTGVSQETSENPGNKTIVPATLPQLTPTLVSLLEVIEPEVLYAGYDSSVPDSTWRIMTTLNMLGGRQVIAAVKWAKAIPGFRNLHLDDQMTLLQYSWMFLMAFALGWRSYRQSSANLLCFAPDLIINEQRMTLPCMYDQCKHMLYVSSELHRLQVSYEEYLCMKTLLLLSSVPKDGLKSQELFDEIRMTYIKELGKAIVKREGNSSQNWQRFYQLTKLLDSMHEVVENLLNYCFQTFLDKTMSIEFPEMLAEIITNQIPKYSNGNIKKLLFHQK
Protocol: Compounds were solvated and diluted in DMSO, and transferred directly into assay plates. Fluorescent dexamethasone and a partially purified full length glucocorticoid receptor were added to the plates, together with buffer components to stabilise the GR protein and incubated at room temperature for 2 hrs in the dark. Binding of each compound was assessed by analysing the displacement of fluorescent ligand by measuring the decrease in fluorescence polarisation signal from the mixture. Dose response curves were constructed from which pIC50 values were estimated.

NFκB = NFκB agonist assay in A549 SPAP cells; type: cell-based; settings: Homo sapiens; for IC50: A549 SPAP cells, TNFα 3.2 ng/ml, read-out: pIC50 for the NFkB assay (converted);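 as to average maximum asymptote in the NFkB assay: maximum inhibition of the TNFα-induced NFκB-driven signal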
Text: Human lung carcinoma A549 cell line (ECACC No. 86012804) has been stably transfected in house with a plasmid containing an ELAM promoter sequence that has a NFκB response element within it. Stimulation of the cell line with TNFα results in intracellular signal transduction and ultimately translocation of NFκB into the nucleus. This activates the inserted DNA sequence resulting in transcription of the integrated SPAP gene, which is quantified using a colorimetric assay. […] The stably transfected cell line was grown as a monolayer in DMEM supplemented with FCS-HI (10%), Non-essential amino acids (1%), L-Glutamine (2 mM), Pen/Strep (1%) and Geneticin (50 mg/ml).
A 70% confluent T225 flask of A549 SPAP cells was harvested by centrifugation for 5 min at 200 g, resuspended in assay buffer (DMEM supplemented with 10% FCS 2×HI, 2 mM L-Glutamine, 1% Pen/Strep and Non essential amino acids) and diluted to 0.16×10^6/ml. 60 μl of cell solution was dispensed to each well of clear Nunc 384-well plates, containing compound at the required concentration. Plates were incubated for 1 h at 37° C., 95% humidity, 5% CO2 before 10 μl of TNFα was added at final concentration of 3.2 ng/ml and then returned to the cell incubator for 15 h. Plates were equilibrated to room temperature for 1 h prior to the addition of 25 μl of pNPP buffer (1M Diethanolamine pH 9.8, 0.5 mM MgCl2, 0.28M NaCl, 2 mg/ml pNPP) to each well of assay plates. The plates were covered to protect the reagents from light, and then incubated at room temperature for approximately 1 hour before reading them on an Ascent using a 405 nm single filter. Dose response curves were constructed from which pIC50 values were estimated.

MMTV promoter = experiment: MMTV agonist assay in A549 MMTV cells; type: cell-based; settings: Homo sapiens, A549, 6 h, >85% = full agonist, >20% and <85% = partial or efficacy selective agonist, read-out: average maximum asymptote in the MMTV agonist assay
Text: Human lung carcinoma A549 cell line (ECACC No. 86012804) has been stably transfected in house with a plasmid containing a renilla luciferase reporter with an MMTV promoter. Stimulation of the cell line with GR agonists results in intracellular signal transduction and ultimately translocation of GR into the nucleus. This activates the inserted DNA sequence resulting in transcription of the integrated luciferase gene, which is quantified using a light emission. The stably transfected cell line was grown as a monolayer in DMEM supplemented with FCS-HI (10%), Non-essential amino acids (1%), L-Glutamine (2 mM), Pen/Strep (1%) and Geneticin (50 mg/ml).
A 90% confluent T175 flask of A549 MMTV cells was harvested by centrifugation for 5 min at 200 g, resuspended in assay buffer (DMEM supplemented with 10% FCS 2×HI, 2 mM Glutamax, Non essential amino acids and 25 mM HEPES) and diluted to 0.1×10^6/ml. 70 μl of cell solution was dispensed to each well of white Nunc 384-well plates, containing compound at the required concentration. Plates were incubated for 6 h at 37° C., 95% humidity, 5% CO2. Plates were equilibrated to room temperature for 1 h prior to the addition of 10 μl of Renilla substrate to each well of assay plates. The plates were covered to protect the reagents from light, and then incubated at room temperature for approximately 15 mins before reading them on a Viewlux. Dose response curves were constructed from which pEC50 and maximum asymptote values were estimated.

Row | Compound | EC50 (progesterone receptor) | IC50 (glucocorticoid receptor) | IC50 (NFκB) | Emax (NFκB; A549, A549 SPAP cells, >85% = full agonist, ≧20% = partial or full agonist, read-out: average maximum asymptote in the NFkB assay) | Emax (MMTV promoter)
1 | Nc1c(C(=O)NCC(O)(CNC(=O)c2c(OC(F)F)cccc2OC(F)F)C(F)(F)F)cnn1-c1ccc(F)cc1 (racemic) [Example 20 (racemic), 5-amino-N-(2-{[({2,6-bis[(difluoromethyl)oxy]phenyl}carbonyl)amino]methyl}-3,3,3-trifluoro-2-hydroxypropyl)-1-(4-fluorophenyl)-1H-pyrazole-4-carboxamide] | > 1000 nM | ≤ 316 nM | – | – | –
2 | Nc1c(C(=O)NCC(O)(CNC(=O)c2c(C(F)(F)F)cccc2C(F)(F)F)C(F)(F)F)cnn1-c1ccc(F)cc1 (single isomer, unassigned) [Example 15 Enantiomer 2, 5-amino-N-{2-[({[2,6-bis(trifluoromethyl)phenyl]carbonyl}amino)methyl]-3,3,3-trifluoro-2-hydroxypropyl}-1-(4-fluorophenyl)-1H-pyrazole-4-carboxamide] | – | – | < 1000 nM | – | –
3 | CCN(CC(O)(CNC(=O)c1cnn(-c2ccc(F)cc2)c1N)C(F)(F)F)C(=O)c1c(Cl)cccc1Cl (single isomer, unassigned) [Example 2 Enantiomer 1, 5-Amino-N-(2-{[[(2,6-dichlorophenyl)carbonyl](ethyl)amino]methyl}-3,3,3-trifluoro-2-hydroxypropyl)-1-(4-fluorophenyl)-1H-pyrazole-4-carboxamide] | > 1000 nM | ≤ 316 nM | < 1000 nM | – | –
4 | Nc1c(C(=O)NCC(O)(CNC(=O)c2c(F)cccc2F)C(F)(F)F)cnn1-c1ccc(F)cc1 (racemic) [Example 6 (racemic), 5-Amino-N-[2-({[(2,6-difluorophenyl)carbonyl]amino}methyl)-3,3,3-trifluoro-2-hydroxypropyl]-1-(4-fluorophenyl)-1H-pyrazole-4-carboxamide] | > 1000 nM | – | – | – | –
5 | Nc1c(C(=O)NCC(O)(CNC(=O)c2c(F)cccc2Cl)C(F)(F)F)cnn1-c1ccc(F)cc1 (single isomer, unassigned) [Example 7 Enantiomer 2, 5-Amino-N-[2-({[(2-chloro-6-fluorophenyl)carbonyl]amino}methyl)-3,3,3-trifluoro-2-hydroxypropyl]-1-(4-fluorophenyl)-1H-pyrazole-4-carboxamide] | – | – | – | ≥ 20% | 20 to 85%
6 | Nc1c(C(=O)NCC(O)(CN(CCF)C(=O)c2c(OC(F)F)cccc2OC(F)F)C(F)(F)F)cnn1-c1ccc(F)cc1 (racemic) [Example 32 (racemic), 5-amino-N-(2-{[({2,6-bis[(difluoromethyl)oxy]phenyl}carbonyl)(2-fluoroethyl)amino]methyl}-3,3,3-trifluoro-2-hydroxypropyl)-1-(4-fluorophenyl)-1H-pyrazole-4-carboxamide] | > 1000 nM | ≤ 316 nM | < 1000 nM | – | –
7 | Nc1c(C(=O)NCC(O)(CNC(=O)c2c(F)cccc2OC(F)F)C(F)(F)F)cnn1-c1ccc(F)cc1 (racemic) [Example 48 (racemic), 5-Amino-N-(2-{[({2-[(difluoromethyl)oxy]-6-fluorophenyl}carbonyl)amino]methyl}-3,3,3-trifluoro-2-hydroxypropyl)-1-(4-fluorophenyl)-1H-pyrazole-4-carboxamide] | > 1000 nM | ≤ 316 nM | < 1000 nM | – | –
8 | CCN(CC(O)(CNC(=O)c1cnn(-c2ccc(F)cc2)c1N)C(F)(F)F)C(=O)c1c(F)cccc1Cl (single isomer, unassigned) [Example 4 Enantiomer 1, 5-Amino-N-(2-{[[(2-chloro-6-fluorophenyl)carbonyl](ethyl)amino]methyl}-3,3,3-trifluoro-2-hydroxypropyl)-1-(4-fluorophenyl)-1H-pyrazole-4-carboxamide] | > 1000 nM | ≤ 316 nM | < 1000 nM | – | –
9 | Nc1c(C(=O)NCC(O)(CNC(=O)c2c(F)cccc2Cl)C(F)(F)F)cnn1-c1ccc(F)cc1 (single isomer, unassigned) [Example 7 Enantiomer 1, 5-Amino-N-[2-({[(2-chloro-6-fluorophenyl)carbonyl]amino}methyl)-3,3,3-trifluoro-2-hydroxypropyl]-1-(4-fluorophenyl)-1H-pyrazole-4-carboxamide] | > 1000 nM | – | < 1000 nM | – | –
